Experimental data from patent publication US20260284018A1, “DUAL INHIBITORS OF DYRK1A AND 5-HT2 FOR TREATING A BRAIN DISORDER” (THE REGENTS OF THE UNIVERSITY OF CALIFORNIA, priority 2023, published 2026).

Tested on: phospho-Tau
Assay: Phospho-Tau assay using cultured rat cortical neurons (okadaic acid insult)
Type: cell-based
Conditions: pretreatment, 30 nM okadaic acid, rat cortical cultures, FIG. 14 and 15B
Method: Phospho-Tau Assay Using Cultured Rat Cortical Neurons. Primary cortical cell cultures were prepared as described previously.^2 Briefly, pregnant Sprague Dawley dams were euthanized at embryonic day 18 (E18), and the cortices of the pups were harvested. Cells were plated on poly-d-lysine coated plates at 15,000 cells per well. Cultures were maintained at 37° C. under an atmosphere containing 5% CO2. Plating media consisted of 10% heat-inactivated fetal bovine serum (FBS; Fisher) 1% penicillin-streptomycin (Fisher), and 0.5 mM glutamine (Life Technologies) in Neurobasal (Fisher). After 16-24 h, media was exchanged for replacement media consisting of IX B27 supplement (Fisher), 1% penicillin-streptomycin, 0.5 mM glutamine, and 12.5 μM glutamate in Neurobasal. On DIV6 and DIV13, 50% of media was removed, and feeding media containing 1×B27 supplement, 1% penicillin-streptomycin, 0.5 mM glutamine in Neurobasal was added with an additional 20% volume added to account for evaporation. On DIV14, the volume of each well was adjusted to 180 μL. Next, 1000× solutions of compounds in DMSO were diluted 1:100 into Neurobasal and 20 μL of the resulting solutions was added to the appropriate wells (total dilution=1:1000, 0.1% DMSO). For wells that were not treated with compounds, DMSO was diluted 1:100 into Neurobasal and 20 μL of the resulting solution was added to the appropriate wells. All treatments were randomized. After 24 h, 20 μL was removed from each well. […] After 1 h, neurons were fixed by removing 80% of the media and replacing it with a volume of 4% aqueous paraformaldehyde (ThermoFisher) equal to 50% of the working volume of the well. Then, the cells were incubated at room temperature for 15 min before the fixative was aspirated and each well was washed twice with DPBS. Cells were permeabilized using 0.2% Triton X-100 (ThermoFisher) in DPBS for 15 min at room temperature without shaking. Plates were blocked with blocking buffer (2% bovine serum albumin and […] in DPBS) overnight at 4° C. Then, plates were incubated overnight at 4° C. with gentle shaking in antibody dilution buffer (ADB) (1% bovine serum albumin and […] in DBPS) containing a chicken anti-MAP2 antibody (1:10,000; EnCor, CPCA-MAP2), guinea pig anti-Tau antibody (1:1000; Synaptic Systems), mouse anti-phosphoTau (Ser202/Thr205) antibody (1:1000; Invitrogen), and rabbit anti-phosphoTau (Ser396) antibody (1:1000; Invitrogen). Plates were washed twice with DPBS and once with ADB before being incubated for 1 h at room temperature in ADB containing an anti-chicken IgY secondary antibody conjugated to Alexa Fluor™ Plus 800 (1:1000; Invitrogen), an anti-mouse IgG secondary antibody conjugated to Alexa Fluor™ Plus 680 (1:1000; Invitrogen), an anti-guinea pig IgG secondary antibody conjugated to Alexa Fluor™ 596 (1:1000; Invitrogen), and an anti-rabbit IgG secondary antibody conjugated to Alexa Fluor™ Plus 488 (1:1000; Invitrogen). Plates were washed three times with DBPS, and after the final wash, 100 μL of DPBS was added per well before imaging on a CellInsight™ CX7 High Content Analysis imager at 20× with 12 ROIs taken per well with no bias to location and no overlap of the ROIs. Images were analyzed using Cellnomics Scan software (version 6.6.2). The compartmental analysis assay was used to measure the average intensity of each channel per field and determine the reported intensity ratios.

`CN(C)CCn1ccc2ccccc21` [isoDMT, reference compound] was tested, and the “hyperphosphorylation of Tau (pTau accumulation) induced by okadaic acid” value was “does not”.
